# Laboratory results reported in patent publication US20250011331A1 (Nimbus Saturn, Inc., priority 2021, published 2025).
# Molecular target: T1, HPK1 (Homo sapiens, UniProt Q92918)
# T1 construct: purchased Invitrogen
# Experiment: HPK1 biochemical enzyme assay (microfluidic mobility shift)
# Conditions: 1.5 nM HPK1 (Invitrogen), 1 mM ATP, 30 min preincubation, 60 min at RT, Caliper EZ Reader
# Procedure: HPK1 biochemical enzyme assay: HPK1 enzyme inhibition was measured using a microfluidic mobility shift assay. Reactions were performed in a 384-well plate, containing 1.5 nM HPK1 (Invitrogen), in assay buffer (Cama Biosciences; pH 7.4). Test compounds were titrated in ten point curves (top final assay concentration 3 μM), and preincubated with enzyme/substrate mix for 30 min prior to initiation of the reaction by addition of ATP (1 mM final concentration) and substrate (1 μM final concentration; Carna Biosciences) diluted in assay buffer supplemented by MgCl2 (final assay concentration of 5 mM). Following 60 min incubation at RT, the reaction was terminated by addition of 60 μl/well termination buffer (Carna Biosciences) and signal determination using a Caliper EZ Reader (Perkin Elmer, UK).
# T1 sequence (Q92918 whole entry): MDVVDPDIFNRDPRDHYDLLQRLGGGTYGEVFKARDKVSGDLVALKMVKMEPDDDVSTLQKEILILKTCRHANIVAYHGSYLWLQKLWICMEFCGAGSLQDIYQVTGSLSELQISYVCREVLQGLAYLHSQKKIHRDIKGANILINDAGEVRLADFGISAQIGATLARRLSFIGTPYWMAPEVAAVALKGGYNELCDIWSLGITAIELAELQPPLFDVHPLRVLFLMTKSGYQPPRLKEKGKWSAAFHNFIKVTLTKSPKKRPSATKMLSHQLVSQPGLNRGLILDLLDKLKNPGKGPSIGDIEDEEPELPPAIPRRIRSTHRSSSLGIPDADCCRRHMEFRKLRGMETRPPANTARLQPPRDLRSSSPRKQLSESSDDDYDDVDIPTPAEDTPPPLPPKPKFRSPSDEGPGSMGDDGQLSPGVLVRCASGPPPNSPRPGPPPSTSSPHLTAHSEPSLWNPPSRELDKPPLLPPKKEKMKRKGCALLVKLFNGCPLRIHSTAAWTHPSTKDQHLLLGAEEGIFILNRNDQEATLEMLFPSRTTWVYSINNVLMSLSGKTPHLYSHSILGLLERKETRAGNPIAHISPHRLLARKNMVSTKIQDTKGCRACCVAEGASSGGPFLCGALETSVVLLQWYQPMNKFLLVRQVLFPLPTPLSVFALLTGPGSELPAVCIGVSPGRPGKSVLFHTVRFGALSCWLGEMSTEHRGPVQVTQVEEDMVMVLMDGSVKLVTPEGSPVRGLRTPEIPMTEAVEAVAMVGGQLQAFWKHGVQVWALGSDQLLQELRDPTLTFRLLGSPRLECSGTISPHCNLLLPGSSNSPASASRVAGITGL
row,IC50,SMILES
1,> 1000 nM,CN(C)Cc1cc(C2CCOC2)cc(Nc2ccc(-c3cnc4cc(F)ccn34)c3c2C(=O)NC3)n1 (stereo not shown) [Compound I-46]
2,≤ 100 nM,"CN(C)Cc1cc(C2CCOC2)cc(Nc2ccc(-c3cnc4cc(F)ccn34)c3c2C(=O)NC3)n1 (single isomer, unassigned) [Compound I-45]"
3,≤ 100 nM,"C[C@@H](O)c1ccc(Nc2ccc(-c3cnc4cc(F)ccn34)c3c2C(=O)NC3)nc1CN(C)C [Compound I-9, (R)-7-((6-((dimethylamino)methyl)-5-(1-hydroxyethyl)pyridin-2-yl)amino)-4-(7-fluoroimidazo[1,2-a]pyridin-3-yl)isoindolin-1-one]"
4,≤ 100 nM,"CN(C)CCc1nc(Nc2cnc(-c3ccnc4c3ccn4C)c3c2C(=O)NC3)ccc1C1CCOCC1 [Compound I-13, 7-((6-(2-(dimethylamino)ethyl)-5-(tetrahydro-2H-pyran-4-yl)pyridin-2-yl)amino)-4-(1-methyl-1H-pyrrolo[2,3-b]pyridin-4-yl)-2,3-dihydro-1H-pyrrolo[3,4-c]pyridin-1-one]"
5,≤ 100 nM,"CN(C)Cc1nc(Nc2ccc(-c3cnc4cc(F)ccn34)c3c2C(=O)NC3)ccc1C1(C)CCOCC1 [Compound I-4, 7-((6-((dimethylamino)methyl)-5-(4-methyltetrahydro-2H-pyran-4-yl)pyridin-2-yl)amino)-4-(7-fluoroimidazo[1,2-a]pyridin-3-yl)isoindolin-1-one]"
6,≤ 100 nM,"CN(C)Cc1nc(Nc2ccc(-c3cnc4cc(F)ccn34)c3c2C(=O)NC3)ccc1[C@H]1CC[C@@H](O)C1 [Compound I-1, 7-((6-((dimethylamino)methyl)-5-((1S,3R)-3-hydroxycyclopentyl)pyridin-2-yl)amino)-4-(7-fluoroimidazo[1,2-a]pyridin-3-yl)isoindolin-1-one]"
7,≤ 100 nM,"CN(C)Cc1nc(Nc2ccc(-c3cnc4cc(F)ccn34)c3c2C(=O)NC3)ccc1[C@@H]1COCCO1 (single isomer, unassigned) [Compound I-15]"
8,≤ 100 nM,"C[C@@H](OC[C@H]1COCCO1)c1ccc(Nc2ccc(-c3cnc4cc(F)ccn34)c3c2C(=O)NC3)nc1CN(C)C (single isomer, unassigned) [Compound I-34]"
9,≤ 100 nM,"CN(C)Cc1nc(Nc2ccc(-c3cnc4cc(C#N)ccn34)c3c2C(=O)NC3)ccc1C1CCOC1 (stereo not shown) [Compound I-47, 3-[7-[[6-[(dimethylamino)methyl]-5-tetrahydrofuran-3-yl-2-pyridyl]amino]-1-oxo-isoindolin-4-yl]imidazo[1,2-a]pyridine-7-carbonitrile]"
10,100 to 1000 nM,CN1CCCC1c1nc(Nc2ccc(-c3cnc4cc(F)ccn34)c3c2C(=O)NC3)ccc1C1CCOC1 (stereo not shown) [Compound I-16]
11,≤ 100 nM,"CN(C)Cc1nc(Nc2ccc(-c3cnc4cc(F)ccn34)c3c2C(=O)NC3)ccc1[C@@]1(C)CCCO1 (single isomer, unassigned) [Compound I-5]"
12,≤ 100 nM,CC(c1ccc(Nc2ccc(-c3cnc4cnccn34)c3c2C(=O)NC3)nc1CN(C)C)C1CCOCC1 (stereo not shown) [Compound I-35]
13,≤ 100 nM,"CO[C@]1(c2ccc(Nc3ccc(-c4cnc5cc(F)ccn45)c4c3C(=O)NC4)nc2CN(C)C)CCOC1 (single isomer, unassigned) [Compound I-21]"
14,≤ 100 nM,"C[C@@H](OC1CCOCC1)c1ccc(Nc2ccc(-c3cnc4cc(F)ccn34)c3c2C(=O)NC3)nc1CN(C)C (single isomer, unassigned) [Compound I-24]"
15,≤ 100 nM,C[C@H](c1ccc(Nc2ccc(-c3cnc4cnccn34)c3c2C(=O)NC3)nc1CN(C)C)C1CCOCC1 [Compound I-37]
16,≤ 100 nM,CN(C)Cc1nc(Nc2ccc(-c3cnc4cnccn34)c3c2C(=O)NC3)ccc1OCC1CCC(F)(F)CC1 [Compound I-11]
17,≤ 100 nM,C[C@@H](OC1CCC1)c1ccc(Nc2ccc(-c3cnc4cnccn34)c3c2C(=O)NC3)nc1CN(C)C [Compound I-29]
18,≤ 100 nM,"C[C@H](OC1CCOCC1)c1ccc(Nc2ccc(-c3cnc4cc(F)ccn34)c3c2C(=O)NC3)nc1CN(C)C (single isomer, unassigned) [Compound I-26]"
19,≤ 100 nM,CN(C)Cc1nc(Nc2ccc(-c3cnc4cc(F)ccn34)c3c2C(=O)NC3)ccc1C(C)(C)N1CCOCC1=O [Compound I-25]
20,≤ 100 nM,C[C@H](OC1CCC1)c1ccc(Nc2ccc(-c3cnc4cnccn34)c3c2C(=O)NC3)nc1CN(C)C [Compound I-30]

row,IC50,SMILES
1,≤ 100 nM,CN(C)Cc1nc(Nc2ccc(-c3cnc4cc(F)ccn34)c3c2C(=O)NC3)ccc1C1CCCC1 [Compound I-22]
2,≤ 100 nM,"CO[C@H]1CCN(Cc2nc(Nc3ccc(-c4cnc5cc(F)ccn45)c4c3C(=O)NC4)ccc2C2CCN(C)C(=O)C2)C1 (stereo partly drawn) [Compound I-43, 4-(7-fluoroimidazo[1,2-a]pyridin-3-yl)-7-[[6-[[(3S)-3-methoxypyrrolidin-1-yl]methyl]-5-(1-methyl-2-oxo-4-piperidyl)-2-pyridyl]amino]isoindolin-1-one]"
3,≤ 100 nM,"CC(Oc1ccc(Nc2ccc(-c3cnc4cnccn34)c3c2C(=O)NC3)nc1CN(C)C)C1CC(F)(F)C1 (stereo not shown) [Compound I-49, 7-[[5-[1-(3,3-difluorocyclobutyl)ethoxy]-6-[(dimethylamino)methyl]-2-pyridyl]amino]-4-imidazo[1,2-a]pyrazin-3-yl-isoindolin-1-one]"
4,≤ 100 nM,"Cc1cncc2ncc(-c3ccc(Nc4ccc([C@@H]5CCOC5)c(CN(C)C)n4)c4c3CNC4=O)n12 (single isomer, unassigned) [Compound I-27]"
5,> 1000 nM,"COC1CN(Cc2nc(Nc3ccc(-c4cnc5cnccn45)c4c3C(=O)NC4)ccc2C2CCOC2)C1 (stereo not shown) [Compound I-41, 4-imidazo[1,2-a]pyrazin-3-yl-7-[[6-[(3-methoxyazetidin-1-yl)methyl]-5-tetrahydrofuran-3-yl-2-pyridyl]amino]isoindolin-1-one]"
6,≤ 100 nM,"CN(C)Cc1nc(Nc2ccc(-c3cnc4cc(F)ccn34)c3c2C(=O)NC3)ccc1[C@@H]1CC[C@H](O)C1 [Compound I-2, 7-((6-((dimethylamino)methyl)-5-((1R,3S)-3-hydroxycyclopentyl)pyridin-2-yl)amino)-4-(7-fluoroimidazo[1,2-a]pyridin-3-yl)isoindolin-1-one]"
7,≤ 100 nM,"Cc1cncc2ncc(-c3ccc(Nc4ccc([C@H]5CCOC5)c(CN(C)C)n4)c4c3CNC4=O)n12 (single isomer, unassigned) [Compound I-28]"
8,≤ 100 nM,"CN(C)Cc1nc(Nc2ccc(-c3cnc4cc(F)ccn34)c3c2C(=O)NC3)ccc1[C@H]1CC[C@H](O)C1 [Compound I-3, 7-((6-((dimethylamino)methyl)-5-((1S,3S)-3-hydroxycyclopentyl)pyridin-2-yl)amino)-4-(7-fluoroimidazo[1,2-a]pyridin-3-yl)isoindolin-1-one]"
9,≤ 100 nM,"CN(C)Cc1nc(Nc2ccc(-c3cnc4cc(F)ccn34)c3c2C(=O)NC3)ccc1[C@]1(C)CCCO1 (single isomer, unassigned) [Compound I-6]"
10,≤ 100 nM,"C[C@H](O)c1ccc(Nc2ccc(-c3cnc4cc(F)ccn34)c3c2C(=O)NC3)nc1CN(C)C [Compound I-10, (S)-7-((6-((dimethylamino)methyl)-5-(1-hydroxyethyl)pyridin-2-yl)amino)-4-(7-fluoroimidazo[1,2-a]pyridin-3-yl)isoindolin-1-one]"
11,≤ 100 nM,"CN(C)Cc1cc(C2CCOCC2)cc(Nc2ccc(-c3cnc4cc(F)ccn34)c3c2C(=O)NC3)n1 [Compound I-39, 7-((6-((dimethylamino)methyl)-4-(tetrahydro-2H-pyran-4-yl)pyridin-2-yl)amino)-4-(7-fluoroimidazo[1,2-a]pyridin-3-yl)isoindolin-1-one]"
12,≤ 100 nM,"CN1CC[C@H](c2ccc(Nc3ccc(-c4cnc5cc(F)ccn45)c4c3C(=O)NC4)nc2)C1=O [Compound I-53, (R)-4-(7-fluoroimidazo[1,2-a]pyridin-3-yl)-7-((5-(1-methyl-2-oxopyrrolidin-3-yl)pyridin-2-yl)amino)isoindolin-1-one]"
13,≤ 100 nM,"CN(C)Cc1nc(Nc2ccc(-c3cnc4cc(F)ccn34)c3c2C(=O)NC3)ccc1[C@H]1COCCO1 (single isomer, unassigned) [Compound I-14]"
14,≤ 100 nM,C[C@@H](c1ccc(Nc2ccc(-c3cnc4cnccn34)c3c2C(=O)NC3)nc1CN(C)C)C1CCOCC1 [Compound I-36]
15,≤ 100 nM,"C[C@@H](c1nc(Nc2ccc(-c3cnc4cc(F)ccn34)c3c2C(=O)NC3)ccc1C1CCOCC1)N(C)C [Compound I-8, (S)-7-((6-(1-(dimethylamino)ethyl)-5-(tetrahydro-2H-pyran-4-yl)pyridin-2-yl)amino)-4-(7-fluoroimidazo[1,2-a]pyridin-3-yl)isoindolin-1-one]"
16,≤ 100 nM,CO[C@H]1C[C@H](Oc2ccc(Nc3ccc(-c4cnc5cc(F)ccn45)c4c3C(=O)NC4)nc2CN(C)C)C1 [Compound I-19]
17,≤ 100 nM,"CN(C)Cc1nc(Nc2ccc(-c3cnc4cc(F)ccn34)c3c2C(=O)NC3)ccc1OC1CC2(COC2)C1 [Compound I-40, 7-((5-((2-oxaspiro[3.3]heptan-6-yl)oxy)-6-((dimethylamino)methyl)pyridin-2-yl)amino)-4-(7-fluoroimidazo[1,2-a]pyridin-3-yl)isoindolin-1-one]"
18,≤ 100 nM,"CO[C@@]1(c2ccc(Nc3ccc(-c4cnc5cc(F)ccn45)c4c3C(=O)NC4)nc2CN(C)C)CCOC1 (single isomer, unassigned) [Compound I-20]"
19,100 to 1000 nM,"CN1CCN(C(=O)[C@H]2CCOC2)c2ccc(Nc3ccc(-c4cnc5cc(F)ccn45)c4c3C(=O)NC4)nc2C1 (single isomer, unassigned) [Compound I-18]"
20,100 to 1000 nM,"CN1CCN(C(=O)[C@@H]2CCOC2)c2ccc(Nc3ccc(-c4cnc5cc(F)ccn45)c4c3C(=O)NC4)nc2C1 (single isomer, unassigned) [Compound I-17]"
